Experimental data from patent US20220348549A1 (Hoffmann-La Roche Inc., priority 2019, published 2022).

Test system: HBV cccDNA (HBeAg level in HepDES19 cells)
Assay: Engineered HepDES19 primary screen assay (HBeAg ELISA as surrogate marker for cccDNA)
Type: cell-based
Conditions: Hepatitis B virus, HepDES19, 120 h
Excerpt: The assay was employed to screen for novel HBV cccDNA inhibitors. HepDES19 is a HBV cccDNA-producing cell line. In this cell line, HBeAg in the cell culture supernatant as surrogate marker, as HBeAg production depends on cccDNA level and activity. HepDES19 is an engineered cell line which contains a 1.1 unit length HBV genome, and pgRNA transcription from the transgene is controlled by Tetracycline (Tet). In the absence of Tet, pgRNA transcription will be induced, but HBV e antigen (HBeAg) could not be produced from this pgRNA due to very short leader sequence before the HBeAg start codon and the start codon is disrupted. Only after cccDNA is formed, the missing leader sequence and start codon mutation would be restored from the 3′-terminal redundancy of pgRNA, and then HBeAg could be synthesized. Therefore, HBeAg could be used as a surrogate marker for cccDNA (Zhou, T. et al., Antiviral Res. (2006), 72(2), 116-124; Guo, H. et al., J. Virol. (2007), 81(22), 12472-12484).
HepDES19 cells were seeded at 2×10^6 cells per T150 flask and cultured with the culture medium (Dulbecco's Modified Eagle Medium: Nutrient Mixture F-12 [DMEM-F12, Gibco Cat. 11320-82], 10% Fetal Bovine Serum [FBS, Clontech Cat. 631101], 0.1 mM Non-Essential Amino Acids Solution [NEAA, Gibco Cat. 11140-050], 50 μg/mL Penicillin-Streptomycin [PS, Invitrogen Cat. 15140-163], 500 μg/mL Geneticin [G418, Invitrogen Cat. 10131-027]) containing 3 μg/mL Tet (Sigma, Cat. 87128) for 5 days. Cells were then seeded at 4×10^6 cells per T150 in the same culture medium as described above in the absence of Tet for 8 days. Cells were then harvested and frozen at density of 2×10^6 cells per mL. For compound testing, the frozen cells were thawed and seeded into 96-well plates at a density of 6×10^4 cells per well. At 24 hrs after seeding, half log serial dilutions of compounds made with Dimethyl sulfoxide (DMSO, Sigma, Cat. D2650) were further diluted with the same culture medium as described above before they were added to the cells to reach desired final compound concentrations and 1% DMSO concentration. Plates were then incubated at 37° C. for another 5 days before measurement of HBeAg level and cell viability. Intracellular HBeAg level were measured with enzyme-linked immunosorbent assay (ELISA) kit (Shanghai Kehua Diagnostic Medical Products Co., Ltd). Cell viability was assessed using Cell Counting Kit-8 (Donjindo, Cat. CK04-20). IC50 values were derived from the dose-response curve using 4 parameter logistic curve fit method.
The compounds of the present invention were tested for their capacity to inhibit extracellular HBeAg level as described herein.

In order of falling IC50:
1. O=C(O)c1nc(-c2ccc(OCCO[C@H]3C[C@@H](C(=O)O)C3)nc2)nc2c(Cl)cccc12 [Example 50, cis-2-[6-[2-(3-Carboxycyclobutoxy)ethoxy]-3-pyridyl]-8-chloro-quinazoline-4-carboxylic acid]  15 µM
2. O=C(O)c1nc(-c2ccc(N3CCCC3)nc2)nc2c(Cl)cccc12 [Example 49, 8-Chloro-2-(6-pyrrolidin-1-yl-3-pyridyl)quinazoline-4-carboxylic acid]  11 µM
3. O=C(c1nc(-c2ccc(Br)cc2)nc2cc(C(F)(F)F)ccc12)N1CCOCC1 [Example 44, [2-(4-Bromophenyl)-7-(trifluoromethyl)quinazolin-4-yl]-morpholino-methanone]  8.7 µM
4. O=C(O)C1CC(OCCOc2ccc(-c3nc(C(F)(F)F)c4cccc(Cl)c4n3)cc2)C1 (stereo not drawn) [Example 56, 3-[2-[4-[8-chloro-4-(trifluoromethyl)quinazolin-2-yl]phenoxy]ethoxy]cyclobutanecarboxylic acid]  7.86 µM
5. CCOc1ccc(-c2nc(C(=O)O)c3cccc(Cl)c3n2)cn1 [Example 48, 8-Chloro-2-(6-ethoxy-3-pyridyl)quinazoline-4-carboxylic acid]  7.57 µM
6. O=C(O)COCCOc1ccc(-c2ncc3cccc(Cl)c3n2)cn1 [Example 51, 2-[2-[[5-(8-Chloroquinazolin-2-yl)-2-pyridyl]oxy]ethoxy]acetic acid]  4.86 µM
7. O=C(O)[C@H]1C[C@@H](OCCOc2ccc(-c3nc(O)c4cccc(Cl)c4n3)cn2)C1 [Example 54, cis-3-[2-[[5-(8-Chloro-4-hydroxy-quinazolin-2-yl)-2-pyridyl]oxy]ethoxy]cyclobutanecarboxylic acid]  3.42 µM
8. O=C(O)c1nc(-c2ccc(Cl)nc2)nc2c(Cl)cccc12 [Example 45, 8-Chloro-2-(6-chloro-3-pyridyl)quinazoline-4-carboxylic acid]  0.66 µM
9. O=C(NCCO)c1nc(-c2ccc(Cl)nc2)nc2c(Cl)cccc12 [Example 52, 8-Chloro-2-(6-chloro-3-pyridyl)-N-(2-hydroxyethyl)quinazoline-4-carboxamide]  0.16 µM
10. NC(=O)c1nc(-c2ccc(Cl)nc2)nc2c(Cl)cccc12 [Example 46, 8-chloro-2-(6-chloro-3-pyridyl)quinazoline-4-carboxamide]  0.11 µM
11. O=C(c1nc(-c2ccc(Cl)nc2)nc2c(Cl)cccc12)N1CCOCC1 [Example 53, [8-Chloro-2-(6-chloro-3-pyridyl)quinazolin-4-yl]-morpholino-methanone]  0.083 µM
12. COc1nc(-c2ccc(OCCOC3CC(C(=O)O)C3)cc2)nc2c(Cl)cccc12 (stereo not drawn) [Example 55, 3-(2-(4-(8-Chloro-4-methoxyquinazolin-2-yl)phenoxy)ethoxy)cyclobutanecarboxylic acid]  0.026 µM
